Measured values from patent publication US7166634B2, “Bis-indole pyrroles useful as antimicrobials agents” (Nereus Pharmaceuticals, Inc., priority 2004, dated 2007).
≈ marks a conversion by molar mass, not a printed value.

test system: S. epidermidis - ATCC 700578; assay: MIC, broth microdilution (NCCLS M7-A5); assay type: cell-based; conditions: S. epidermidis - ATCC 700578; Table 3
Experimental: (§1) Minimum inhibitory concentrations (MICs) are determined according to the National Committee for Clinical Laboratory Standards (NCCLS) susceptibility test guideline M7-A5 (Ferraro, M. 2001 Methods for Dilution Antimicrobial Susceptibility Tests for Bacteria that Grow Aerobically; Approved Standard (NCCLS). National Committee for Clinical Laboratory Standards (NCCLS), Villanova) to quantify the antimicrobial activity of the compounds of the present embodiment against various pathogenic bacteria. Susceptibility testing is performed by broth microdilution in accordance with National Committee for Clinical Laboratory Standards (NCCLS) guidelines. This procedure entails combining the test compounds with a standardized number of cells, incubating at the temperature and amount of time appropriate for each particular organism, and visually scoring the concentration at which no growth was apparent in the test wells. The panel includes both drug sensitive and drug resistant isolates of both gram-positive and gram-negative bacteria, including: S. aureus (both MSSA and MRSA), S. pneumoniae (wild type and penicillin-resistant), vancomycin-sensitive E. faecalis, vancomycin-resistant E. faecium, E. coli, H. influenzae and P. aeruginosa.
(§2) Susceptibility testing was performed by broth microdilution in accordance with National Committee for Clinical Laboratory Standards (NCCLS) guidelines. Antimicrobial data for compounds of Formulae II, III, IV, VI, VII, VIII, IX, XII, XIII, XIV, XV′, XV, XVI, XVII, XVIII, XXI′, XXII, XXIII, XXIV, and XXV are shown in Tables 3, 4 and 5.

Row | SMILES | MIC [µg/mL]
1 | COC(=O)c1[nH]cc(-c2c[nH]c3ccc(Cl)cc23)c1-c1c[nH]c2ccc(Cl)cc12 [III] | 4 (≈ 9.43 µM)
2 | COC(=O)c1[nH]cc(-c2c[nH]c3cc(Cl)c(Cl)cc23)c1-c1c[nH]c2ccc(Cl)cc12 [II] | 1 (≈ 2.18 µM)

test system: S. epidermidis - ATCC 700582; assay: MIC, broth microdilution (NCCLS M7-A5); assay type: cell-based; conditions: S. epidermidis - ATCC 700582; Table 3
Experimental: as §1, §2

Row | SMILES | MIC [µg/mL]
3 | COC(=O)c1[nH]cc(-c2c[nH]c3ccc(Cl)cc23)c1-c1c[nH]c2ccc(Cl)cc12 [III] | 4 (≈ 9.43 µM)
4 | COC(=O)c1[nH]cc(-c2c[nH]c3cc(Cl)c(Cl)cc23)c1-c1c[nH]c2ccc(Cl)cc12 [II] | 1 (≈ 2.18 µM)

test system: E. coli - ATCC 25922; assay: MIC, broth microdilution (NCCLS M7-A5); assay type: cell-based; conditions: Table 3
Experimental: as §1, §2

Row | SMILES | MIC [µg/mL]
5 | COC(=O)c1[nH]cc(-c2c[nH]c3ccc(Cl)cc23)c1-c1c[nH]c2ccc(Cl)cc12 [III] | >32
6 | COC(=O)c1[nH]cc(-c2c[nH]c3cc(Cl)c(Cl)cc23)c1-c1c[nH]c2ccc(Cl)cc12 [II] | >32

test system: E. coli - imp; assay: MIC, broth microdilution (NCCLS M7-A5); assay type: cell-based; conditions: E. coli - imp; Table 3
Experimental: as §1, §2

Row | SMILES | MIC [µg/mL]
7 | COC(=O)c1[nH]cc(-c2c[nH]c3ccc(Cl)cc23)c1-c1c[nH]c2ccc(Cl)cc12 [III] | 16 (≈ 37.7 µM)
8 | COC(=O)c1[nH]cc(-c2c[nH]c3cc(Cl)c(Cl)cc23)c1-c1c[nH]c2ccc(Cl)cc12 [II] | 6 (≈ 13.1 µM)

test system: E. faecium - Van^r (VRE 700221); assay: MIC, broth microdilution (NCCLS M7-A5); assay type: cell-based; conditions: E. faecium - Van^r; Table 3
Experimental: as §1, §2

Row | SMILES | MIC [µg/mL]
9 | COC(=O)c1[nH]cc(-c2c[nH]c3ccc(Cl)cc23)c1-c1c[nH]c2ccc(Cl)cc12 [III] | 8 (≈ 18.9 µM)
10 | COC(=O)c1[nH]cc(-c2c[nH]c3cc(Cl)c(Cl)cc23)c1-c1c[nH]c2ccc(Cl)cc12 [II] | 2 (≈ 4.36 µM)

test system: H. influenzae - ATCC 49247; assay: MIC, broth microdilution (NCCLS M7-A5); assay type: cell-based; conditions: H. influenzae - ATCC 49247; Table 3
Experimental: as §1, §2

Row | SMILES | MIC [µg/mL]
11 | COC(=O)c1[nH]cc(-c2c[nH]c3ccc(Cl)cc23)c1-c1c[nH]c2ccc(Cl)cc12 [III] | 16 (≈ 37.7 µM)
12 | COC(=O)c1[nH]cc(-c2c[nH]c3cc(Cl)c(Cl)cc23)c1-c1c[nH]c2ccc(Cl)cc12 [II] | 2 (≈ 4.36 µM)

test system: H. influenzae - ATCC 49766; assay: MIC, broth microdilution (NCCLS M7-A5); assay type: cell-based; conditions: H. influenzae - ATCC 49766; Table 3
Experimental: as §1, §2

Row | SMILES | MIC [µg/mL]
13 | COC(=O)c1[nH]cc(-c2c[nH]c3ccc(Cl)cc23)c1-c1c[nH]c2ccc(Cl)cc12 [III] | 12 (≈ 28.3 µM)
14 | COC(=O)c1[nH]cc(-c2c[nH]c3cc(Cl)c(Cl)cc23)c1-c1c[nH]c2ccc(Cl)cc12 [II] | 6 (≈ 13.1 µM)

test system: S. aureus - MRSA (43300); assay: MIC, broth microdilution (NCCLS M7-A5); assay type: cell-based; conditions: S. aureus - MRSA; Table 3
Experimental: as §1, §2

Row | SMILES | MIC [µg/mL]
15 | COC(=O)c1[nH]cc(-c2c[nH]c3ccc(Cl)cc23)c1-c1c[nH]c2ccc(Cl)cc12 [III] | 2 (≈ 4.71 µM)
16 | COC(=O)c1[nH]cc(-c2c[nH]c3cc(Cl)c(Cl)cc23)c1-c1c[nH]c2ccc(Cl)cc12 [II] | 1 (≈ 2.18 µM)

test system: S. aureus - MSSA (29213); assay: MIC, broth microdilution (NCCLS M7-A5); assay type: cell-based; conditions: S. aureus - MSSA; Table 3
Experimental: as §1, §2

Row | SMILES | MIC [µg/mL]
17 | COC(=O)c1[nH]cc(-c2c[nH]c3ccc(Cl)cc23)c1-c1c[nH]c2ccc(Cl)cc12 [III] | 1.8 (≈ 4.24 µM)
18 | COC(=O)c1[nH]cc(-c2c[nH]c3cc(Cl)c(Cl)cc23)c1-c1c[nH]c2ccc(Cl)cc12 [II] | 0.8 (≈ 1.74 µM)

test system: S. pneumoniae - penicillin resistant (51915); assay: MIC, broth microdilution (NCCLS M7-A5); assay type: cell-based; conditions: S. pneumoniae - penicillin resistant; Table 3
Experimental: as §1, §2

Row | SMILES | MIC [µg/mL]
19 | COC(=O)c1[nH]cc(-c2c[nH]c3ccc(Cl)cc23)c1-c1c[nH]c2ccc(Cl)cc12 [III] | 24 (≈ 56.6 µM)
20 | COC(=O)c1[nH]cc(-c2c[nH]c3cc(Cl)c(Cl)cc23)c1-c1c[nH]c2ccc(Cl)cc12 [II] | 8 (≈ 17.4 µM)

test system: S. pneumoniae - penicillin sensitive (49619); assay: MIC, broth microdilution (NCCLS M7-A5); assay type: cell-based; conditions: S. pneumoniae - penicillin sensitive; Table 3
Experimental: as §1, §2

Row | SMILES | MIC [µg/mL]
21 | COC(=O)c1[nH]cc(-c2c[nH]c3ccc(Cl)cc23)c1-c1c[nH]c2ccc(Cl)cc12 [III] | 24 (≈ 56.6 µM)
22 | COC(=O)c1[nH]cc(-c2c[nH]c3cc(Cl)c(Cl)cc23)c1-c1c[nH]c2ccc(Cl)cc12 [II] | 8 (≈ 17.4 µM)

test system: E. faecalis - Van^s (VSE 29212); assay: MIC, broth microdilution (NCCLS M7-A5); assay type: cell-based; conditions: E. faecalis - Van^s; Table 3
Experimental: as §1, §2

Row | SMILES | MIC [µg/mL]
23 | COC(=O)c1[nH]cc(-c2c[nH]c3ccc(Cl)cc23)c1-c1c[nH]c2ccc(Cl)cc12 [III] | 8 (≈ 18.9 µM)
24 | COC(=O)c1[nH]cc(-c2c[nH]c3cc(Cl)c(Cl)cc23)c1-c1c[nH]c2ccc(Cl)cc12 [II] | 1.5 (≈ 3.27 µM)
